# Assay results reported in patent US20090291857A1, “METHODS TO IDENTIFY INHIBITORS OF THE UNFOLDED PROTEIN RESPONSE” (THE BOARD OF TRUSTEES OF THE LELAND STANFORD JUNIOR …, priority 2006, published 2009).
# What was measured:
# JNK1 = JNK1 activation under ER stress; format: cell-based, human; settings: 2.5 μM, 2 hour preincubation, Tm 4 μg/ml 1.5 hrs
# Protocol: HT1080 cells were exposed to DMSO vehicle (lane 1), irestatin 9389 (2.5 μM; lane 2) for 16 hours or Tm (5 μg/ml; lane 3) for 8 hours. Following treatments, cells were harvested, lysed, and analyzed by immunoblotting using anti-Grp78 antibody (top) or anti-actin (bottom) as a loading control. B. Effect of irestatin 9389 on IRE1α expression and kinase function. HT1080 cells were preincubated for 16 hours with either vehicle or irestatin 9389 (2.5 μM), followed by addition of Tm (5 μg/ml) for the indicated times. Cell lysates were analyzed by Western immunoblotting using anti-IRE1α (bottom) or anti-phospho-IRE1α antibodies (top). C. Effect of irestatins on JNK1 activation under ER stress. HT1080 cells were untreated (lane 1), exposed to TNF-α (10 ng/ml, 10 min), or Tm (4 μg/ml, 1.5 hrs) (lanes 3-8) following a 2 hour preincubation in the presence of vehicle (lane 3) or the indicated irestatins (2.5 μM; lanes 4-8). Lysates were analyzed by Western blot using antisera specific for phospho-JNK1 (top) or total JNK1 (bottom). […] F. Quantification of RNA cleavage kinetics. […] Samples were analyzed as in (E).
# Activation of IRE1α is preceded by ATP binding and autophosphorylation, and the IRE1α kinase is required for endonuclease activity. […] Cells were then harvested at regular intervals, and activation of the IRE1α kinase was assessed by immunoblotting using anti-phospho-IRE1α antisera.
# [1] = tested on: HT1080 s.c. tumor xenografts; format: in vivo; settings: 50 mg/kg i.p. every other day, 6 doses
# Protocol: Female 4-6 week-old SCID (B6.CB17) mice supplied by Stanford University Animal Facility were housed in the same facility (American Association of Laboratory Animal Care-approved) with 12 hour light cycles. Food and water were provided ad libitum. All experiments were approved by the institutional care and use committee. The potential toxicities of irestatin 9389 were examined in SCID mice injected i.p. once daily over 4 consecutive days with increasing doses of irestatin 9389 or vehicle control. […] For xenografts, 2×10^6 HT1080 fibrosarcoma cells were resuspended in 50-75 μl PBS and injected s.c. in the dorsal flanks of host mice. When the implanted tumors reached a mean volume of ˜150 mm^3, mice were randomly assigned into different treatment groups. Mice were dosed by i.p. bolus injection with either vehicle (50% DMSO, 20% cremophor EL, 30% ethanol) or irestatin 9389 (50 mg/kg). Tumors (6-8 per group) were measured every 2-4 days with calipers. Tumor volume was calculated using the formula [(W^2×L) 0.52] where W=width and L=length.
# A. Irestatin 9389 impairs IREla activity in implanted tumor xenografts. […] Tumor volumes were calculated based on caliper measurements taken every 3-5 days. Data points represent the mean volume calculated from at least 7 tumors per group, with SEM shown in one direction. […]
smiles,measurement,setting,value
Cc1csc(NC(=O)CSc2nc3c(c(C(F)(F)F)c2C#N)CCC3)n1 [Compound 9389],phosphorylation of JNK1 during Tm-induced ER stress,JNK1,failed to block the phosphorylation of JNK1
same,antitumor effect,[1],significant cytostatic antitumor effects
